Experimental data taken from patent US9688684B2, “Substituted tetrazolo[1,5-a]pyrazines as ROR-gamma inhibitors” (Merck Patent GmbH, priority 2013, dated 2017).

Target: human RORγ ligand binding domain (GST-hRORγ-LBD) (Homo sapiens (Human), UniProt P51449)
Assay: TR-FRET assay (biochemical cofactor interaction assay, GST-hRORγ-LBD / TRAP220 peptide)
Excerpt: RORγ is an orphan member of the nuclear receptor (NR) family displaying constitutive activity. The activity of nuclear receptors can be modulated by ligand-induced cofactor protein interactions. For example, agonist binding leads to recruitment of coactivator protein, and antagonist binding either blocks coactivator interaction or facilitates the recruitment of corepressors. […] The conformational change induced by ligand binding influences interactions with LXXLL motif peptides.
RORγ (t) is a thymus-specific isoform of RORγ which is widely expressed. It shares the same ligand binding domain (LBD) sequence with RORγ. Thus, a screen using the LBD will yield antagonists targeting both RORγ and RORγt.
In order to identify compounds which block activity of the human nuclear receptor Retinoid-related Orphan Receptor gamma (RORγ) a biochemical cofactor interaction assay based on the TR-FRET principle is performed. […] The ligand-binding domain (LBD) of RORγ is expressed as fusion protein with GST in […] cells using the vector pDEST15. Cells are lysed by lysozyme-treatment and sonication, and the fusion proteins purified over glutathione sepharose (Pharmacia) according to the manufacturers instructions. The strong constitutive interaction is disrupted upon binding of functional antagonists. The strength of the interaction is monitored by TR-FRET between streptavidine APC interacting with the biotinylated peptide and Europium-labelled Anti-GST.

Sequence of human RORγ ligand binding domain (GST-hRORγ-LBD) (P51449 269-508): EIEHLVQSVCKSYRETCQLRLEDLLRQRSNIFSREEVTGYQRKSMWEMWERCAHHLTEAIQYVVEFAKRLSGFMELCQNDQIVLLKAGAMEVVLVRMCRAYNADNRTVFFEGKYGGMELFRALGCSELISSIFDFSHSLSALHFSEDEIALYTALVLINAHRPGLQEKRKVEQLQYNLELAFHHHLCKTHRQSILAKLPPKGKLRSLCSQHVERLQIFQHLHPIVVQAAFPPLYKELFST

Molecule	IC50
7-Benzyl-8-(4-ethyl-phenyl-1H-pyrazol-4-yl)-5,6,7,8-tetrahydro-tetrazolo[1,5-a]pyrazine [Compound 152]	9.9 to 40 µM
Fc1ccc(CN2CCn3nnnc3C2c2cccc(F)c2)cc1 (single isomer, unassigned) [Compound 91-a, 7-(4-Fluoro-benzyl)-8-(3-fluoro-phenyl)-5,6,7,8-tetrahydro-tetrazolo[1,5-a]pyrazine]	9.9 to 40 µM
Cc1cccc(CN2CCn3nnnc3C2c2ccc(F)cc2)c1 (single isomer, unassigned) [Compound 93-b, 8-(4-Fluoro-phenyl)-7-(3-methyl-benzyl)-5,6,7,8-tetrahydro-tetrazolo[1,5-a]pyrazine]	9.9 to 40 µM
Fc1ccc(C2c3nnnn3CCN2Cc2cccc(Br)c2)cc1 (single isomer, unassigned) [Compound 96-b, 7-(3-Bromo-benzyl)-8-(4-fluoro-phenyl)-5,6,7,8-tetrahydro-tetrazolo[1,5-a]pyrazine]	9.9 to 40 µM
COc1ccc(OC)c(CN2CCn3nnnc3C2c2ccc(OC(C)C)cc2)c1 (stereo not shown) [Compound 1, 7-(2,5-Dimethoxy-benzyl)-8-(4-isopropoxy-phenyl)-5,6,7,8-tetrahydro-tetrazolo[1,5-a]pyrazine]	9.9 to 40 µM
CC(C)Oc1ccc(C2c3nnnn3CCN2CC2CCCCC2)cc1 (stereo not shown) [Compound 3, 7-Cyclohexylmethyl-8-(4-isopropoxy-phenyl)-5,6,7,8-tetra hydro-tetrazolo[1,5-a]pyrazine]	9.9 to 40 µM
COc1ccc(C2c3nnnn3CCN2Cc2cn(-c3ccccc3)nc2C(C)C)cc1 (stereo not shown) [Compound 5, 7-(3-Isopropyl-1-phenyl-1H-pyrazol-4-ylmethyl)-8-(4-methoxy-phenyl)-5,6,7,8-tetrahydro-tetrazolo[1,5-a]pyrazine]	9.9 to 40 µM
Brc1cccc(CN2CCn3nnnc3C2c2cccc(Br)c2)c1 (stereo not shown) [Compound 6, 7-(3-Bromo-benzyl)-8-(3-bromo-phenyl)-5,6,7,8-tetrahydro-tetrazolo[1,5-a]pyrazine]	9.9 to 40 µM
Brc1cccc(C2c3nnnn3CCN2CC2CCCCC2)c1 (stereo not shown) [Compound 9, 8-(3-Bromo-phenyl)-7-cyclohexylmethyl-5,6,7,8-tetrahydro-tetrazolo[1,5-a]pyrazine]	9.9 to 40 µM
CC(C)c1nn(-c2ccccc2)cc1CN1CCn2nnnc2C1c1ccc(F)cc1 (stereo not shown) [Compound 11, 8-(4-Fluoro-phenyl)-7-(3-isopropyl-1-phenyl-1H-pyrazol-4-ylmethyl)-5,6,7,8-tetrahydro-tetrazolo[1,5-a]pyrazine]	9.9 to 40 µM
COc1ccc(OC)c(C2c3nnnn3CCN2Cc2cn(-c3ccccc3)nc2C(C)C)c1 (stereo not shown) [Compound 13, 8-(2,5-Dimethoxy-phenyl)-7-(3-isopropyl-1-phenyl-1H-pyrazol-4-ylmethyl)-5,6,7,8-tetrahydro-tetrazolo[1,5-a]pyrazine]	9.9 to 40 µM
CN(C)c1ccc(C2c3nnnn3CCN2Cc2cc(F)ccc2F)cc1 (stereo not shown) [Compound 16, {4-[7-(2,5-Difluoro-benzyl)-5,6,7,8-tetrahydro-tetrazolo[1,5-a]pyrazin-8-yl]-phenyl}-dimethyl-amine]	9.9 to 40 µM
CN(C)c1ccc(C2c3nnnn3CCN2CC2CCCCC2)cc1 (stereo not shown) [Compound 19, [4-(7-Cyclohexylmethyl-5,6,7,8-tetrahydro-tetrazolo[1,5-a]pyrazin-8-yl)-phenyl]-dimethyl-amine]	9.9 to 40 µM
CN(C)c1ccc(C2c3nnnn3CCN2Cc2cccc(F)c2F)cc1 (stereo not shown) [Compound 20, {4-[7-(2,3-Difluoro-benzyl)-5,6,7,8-tetrahydro-tetrazolo[1,5-a]pyrazin-8-yl]-phenyl}-dimethyl-amine]	9.9 to 40 µM
COc1ccc(CN2CCn3nnnc3C2c2ccccc2F)cc1 (stereo not shown) [Compound 22, 8-(2-Fluoro-phenyl)-7-(4-methoxy-benzyl)-5,6,7,8-tetrahydro-tetrazolo[1,5-a]pyrazine]	9.9 to 40 µM
Cc1cccc(C2c3nnnn3CCN2Cc2cn(-c3ccccc3)nc2C(C)C)c1 (stereo not shown) [Compound 27, 7-(3-Isopropyl-1-phenyl-1H-pyrazol-4-ylmethyl)-8-m-tolyl-5,6,7,8-tetrahydro-tetrazolo[1,5-a]pyrazine]	9.9 to 40 µM
CC(C)c1nn(-c2ccccc2)cc1CN1CCn2nnnc2C1c1ccc2c(c1)OCO2 (stereo not shown) [Compound 29, 8-Benzo[1,3]dioxol-5-yl-7-(3-isopropyl-1-phenyl-1H-pyrazol-4-ylmethyl)-5,6,7,8-tetrahydro-tetrazolo[1,5-a]pyrazine]	9.9 to 40 µM
Fc1ccc(F)c(CN2CCn3nnnc3C2c2cc(F)ccc2F)c1 (stereo not shown) [Compound 32, 7-(2,5-Difluoro-benzyl)-8-(2,5-difluoro-phenyl)-5,6,7,8-tetrahydro-tetrazolo[1,5-a]pyrazine]	9.9 to 40 µM
Fc1ccc(F)c(C2c3nnnn3CCN2Cc2cccc(F)c2F)c1 (stereo not shown) [Compound 35, 7-(2,3-Difluoro-benzyl)-8-(2,5-difluoro-phenyl)-5,6,7,8-tetrahydro-tetrazolo[1,5-a]pyrazine]	9.9 to 40 µM

Molecule	IC50
CCOc1ccc(C2c3nnnn3CCN2Cc2cn(-c3ccccc3)nc2C(C)C)cc1 (stereo not shown) [Compound 43, 8-(4-Ethoxy-phenyl)-7-(3-isopropyl-1-phenyl-1H-pyrazol-4-ylmethyl)-5,6,7,8-tetrahydro-tetrazolo[1,5-a]pyrazine]	9.9 to 40 µM
CCOc1ccc(C2c3nnnn3CCN2CC2CCCCC2)cc1 (stereo not shown) [Compound 44, 7-Cyclohexylmethyl-8-(4-ethoxy-phenyl)-5,6,7,8-tetrahydro-tetrazolo[1,5-a]pyrazine]	9.9 to 40 µM
CCOc1ccc(C2c3nnnn3CCN2Cc2cccc(F)c2F)cc1 (stereo not shown) [Compound 45, 7-(2,3-Difluoro-benzyl)-8-(4-ethoxy-phenyl)-5,6,7,8-tetrahydro-tetrazolo[1,5-a]pyrazine]	9.9 to 40 µM
c1csc(CN2CCn3nnnc3C2c2cccs2)c1 (stereo not shown) [Compound 47, 8-Thiophen-2-yl-7-thiophen-2-ylmethyl-5,6,7,8-tetrahydro-tetrazolo[1,5-a]pyrazine]	9.9 to 40 µM
Cc1cccc(CN2CCn3nnnc3C2c2cn(-c3ccccc3)nc2C(C)C)c1 (stereo not shown) [Compound 57, 8-(3-Isopropyl-1-phenyl-1H-pyrazol-4-yl)-7-(3-methyl-benzyl)-5,6,7,8-tetrahydro-tetrazolo[1,5-a]pyrazine]	9.9 to 40 µM
CC(C)c1nn(-c2ccccc2)cc1CN1CCn2nnnc2C1c1cn(-c2ccccc2)nc1C(C)C (stereo not shown) [Compound 62, 8-(3-Isopropyl-1-phenyl-1H-pyrazol-4-yl)-7-(3-isopropyl-1-phenyl-1H-pyrazol-4-ylmethyl)-5,6,7,8-tetrahydro-tetrazolo[1,5-a]pyrazine]	9.9 to 40 µM
CC(C)Oc1ccc(CN2CCn3nnnc3C2C2CCCCC2)cc1 (stereo not shown) [Compound 64, 8-Cyclohexyl-7-(4-isopropoxy-benzyl)-5,6,7,8-tetrahydro-tetrazolo[1,5-a]pyrazine]	9.9 to 40 µM
CN(C)c1ccc(CN2CCn3nnnc3C2C2CCCCC2)cc1 (stereo not shown) [Compound 66, [4-(8-Cyclohexyl-5,6-dihydro-8H-tetrazolo[1,5-a]pyrazin-7-ylmethyl)-phenyl]-dimethyl-amine]	9.9 to 40 µM
CCOc1ccc(CN2CCn3nnnc3C2C2CCCCC2)cc1 (stereo not shown) [Compound 67, 8-Cyclohexyl-7-(4-ethoxy-benzyl)-5,6,7,8-tetrahydro-tetrazolo[1,5-a]pyrazine]	9.9 to 40 µM
C1CCC(CN2CCn3nnnc3C2C2CCCCC2)CC1 (stereo not shown) [Compound 69, 8-Cyclohexyl-7-cyclohexylmethyl-5,6,7,8-tetrahydro-tetrazolo[1,5-a]pyrazine]	9.9 to 40 µM
Fc1ccc(F)c(CN2CCn3nnnc3C2c2cccc(F)c2F)c1 (stereo not shown) [Compound 74, 7-(2,5-Difluoro-benzyl)-8-(2,3-difluoro-phenyl)-5,6,7,8-tetrahydro-tetrazolo[1,5-a]pyrazine]	9.9 to 40 µM
Fc1cccc(CN2CCn3nnnc3C2c2cccc(F)c2F)c1F (stereo not shown) [Compound 79, 7-(2,3-Difluoro-benzyl)-8-(2,3-difluoro-phenyl)-5,6,7,8-tetrahydro-tetrazolo[1,5-a]pyrazine]	9.9 to 40 µM
O=C(c1cccc(Br)c1)N1CCn2nnnc2C1c1cccc(F)c1 (stereo not shown) [Compound 82, (3-Bromo-phenyl)-[8-(3-fluoro-phenyl)-5,6-dihydro-8H-tetrazolo[1,5-a]pyrazin-7-yl]-methanone]	9.9 to 40 µM
Cn1ccc(CN2CCn3nnnc3C2c2ccc(F)cc2)n1 (stereo not shown) [Compound 85, 8-(4-Fluoro-phenyl)-7-(1-methyl-1H-pyrazol-3-ylmethyl)-5,6,7,8-tetrahydro-tetrazolo[1,5-a]pyrazine]	9.9 to 40 µM
Cc1cccc(CN2CCn3nnnc3C2c2ccccn2)c1 (stereo not shown) [Compound 86, 7-(3-Methyl-benzyl)-8-pyridin-2-yl-5,6,7,8-tetrahydro-tetrazolo[1,5-a]pyrazine]	9.9 to 40 µM
Cc1cccc(CN2CCn3nnnc3C2c2ccncc2)c1 (stereo not shown) [Compound 87, 7-(3-Methyl-benzyl)-8-pyridin-4-yl-5,6,7,8-tetrahydro-tetrazolo[1,5-a]pyrazine]	9.9 to 40 µM
COc1ccc(OC)c(C2c3nnnn3CCN2Cc2cccc(F)c2F)c1 (stereo not shown) [Compound 151, 7-(2,3-Difluoro-benzyl)-8-(2,5-dimethoxy-phenyl)-5,6,7,8-tetrahydro-tetrazolo[1,5-a]pyrazine]	9.9 to 40 µM
CC(C)c1nn(-c2ccccc2)cc1C1c2nnnn2CCN1Cc1ccn[nH]1 (stereo not shown) [Compound 153, 8-(3-Isopropyl-1-phenyl-1H-pyrazol-4-yl)-7-(2H-pyrazol-3-ylmethyl)-5,6,7,8-tetrahydro-tetrazolo[1,5-a]pyrazine]	9.9 to 40 µM
